Assay results taken from the supplement of paper PMC10307832.

Assays:
Assay in all cases: relative viability (nuclei count vs DMSO), 5 days (fraction); higher = more cells survive
Dabrafenib + Lapatinib = compound: CC(C)(C)c1nc(-c2cccc(NS(=O)(=O)c3c(F)cccc3F)c2F)c(-c2ccnc(N)n2)s1 [Dabrafenib] + CS(=O)(=O)CCNCc1ccc(-c2ccc3ncnc(Nc4ccc(OCc5cccc(F)c5)c(Cl)c4)c3c2)o1 [Lapatinib] (partner 2 µM)
How it was run: (§1)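 Lung cancer cell lines, seeded in 1536-well plates, were treated the following day by pin tool with a single drug or with five library-drug doses (not always all listed) in √10 steps on top of a fixed anchor-drug dose. Cells were fixed and nuclei stained in one step after 5 days, and nuclei were counted. Relative viability is the nuclei count for treated wells divided by that for vehicle wells, reported as medians of duplicate plates.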

Dabrafenib + Pictilisib = compound: CC(C)(C)c1nc(-c2cccc(NS(=O)(=O)c3c(F)cccc3F)c2F)c(-c2ccnc(N)n2)s1 [Dabrafenib] + CS(=O)(=O)N1CCN(Cc2cc3nc(-c4cccc5[nH]ncc45)nc(N4CCOCC4)c3s2)CC1 [Pictilisib] (partner 1 µM)
How it was run: as §1

VX-702 + Lapatinib = compound: NC(=O)c1ccc(N(C(N)=O)c2c(F)cccc2F)nc1-c1ccc(F)cc1F [VX-702] + CS(=O)(=O)CCNCc1ccc(-c2ccc3ncnc(Nc4ccc(OCc5cccc(F)c5)c(Cl)c4)c3c2)o1 [Lapatinib] (partner 2 µM)
How it was run: as §1

VX-702 + Alpelisib = compound: NC(=O)c1ccc(N(C(N)=O)c2c(F)cccc2F)nc1-c1ccc(F)cc1F [VX-702] + Cc1nc(NC(=O)N2CCC[C@H]2C(N)=O)sc1-c1ccnc(C(C)(C)C(F)(F)F)c1 [Alpelisib] (partner 2 µM)
How it was run: as §1

Cell Line	relative viability (Dabrafenib + Lapatinib; first compound 0.003 µM)	relative viability (Dabrafenib + Lapatinib; first compound 0.009487 µM)	relative viability (Dabrafenib + Lapatinib; first compound 0.03 µM)	relative viability (Dabrafenib + Lapatinib; first compound 0.09487 µM)	relative viability (Dabrafenib + Lapatinib; first compound 0.3 µM)	relative viability (Dabrafenib + Pictilisib; first compound 0.003 µM)	relative viability (Dabrafenib + Pictilisib; first compound 0.009487 µM)	relative viability (Dabrafenib + Pictilisib; first compound 0.03 µM)	relative viability (Dabrafenib + Pictilisib; first compound 0.09487 µM)	relative viability (Dabrafenib + Pictilisib; first compound 0.3 µM)	relative viability (VX-702 + Lapatinib; first compound 0.02 µM)	relative viability (VX-702 + Lapatinib; first compound 0.2 µM)	relative viability (VX-702 + Lapatinib; first compound 0.6325 µM)	relative viability (VX-702 + Lapatinib; first compound 2 µM)	relative viability (VX-702 + Alpelisib; first compound 0.02 µM)	relative viability (VX-702 + Alpelisib; first compound 0.2 µM)	relative viability (VX-702 + Alpelisib; first compound 0.6325 µM)	relative viability (VX-702 + Alpelisib; first compound 2 µM)
201T	1.06	1.04	1.01	1.03	1.09	0.665	0.711	0.607	0.65	0.71	1.06	0.991	1.12	1.09	0.997	1.04	1.03	1.02
A549	0.899	1.06	1.07	1	1.04	0.497	0.487	0.519	0.544	0.64	1.05	0.922	0.943	1.03	0.727	0.666	0.692	0.857
A-427	–	1.06	0.878	0.793	1.05	–	0.611	0.769	0.522	0.675	1.17	0.968	1.07	1.16	0.997	0.99	1.1	1.17
ABC-1	1.14	1.24	1.3	1.2	1.05	–	0.86	0.823	0.778	0.822	0.972	0.98	–	1.18	0.948	–	0.901	1
BEN	–	0.805	–	0.81	0.841	–	0.58	–	0.52	0.687	0.726	0.662	0.539	0.926	0.823	0.912	0.919	1.18
CAL-12T	0.709	0.74	0.683	0.639	0.789	0.319	0.392	0.395	0.57	0.535	0.61	0.603	0.611	0.664	1.22	1.27	1.16	1.24
COR-L23	0.984	1.1	0.92	0.874	0.913	0.8	0.888	0.704	0.632	0.647	0.999	0.862	0.914	1.26	0.947	0.831	0.841	0.986
COR-L 105	0.273	0.367	0.3	0.375	0.426	0.297	0.435	0.353	0.454	0.474	0.332	0.336	0.338	0.326	1.08	0.947	0.868	1.24
Calu-6	1.18	1.03	0.911	0.848	0.886	0.968	0.913	0.867	0.715	0.694	1.07	1.1	1.13	1.25	0.942	1.07	1	1.2
